Reference: patent US11780821B2, “Inhibitors of fibroblast activation protein” (Praxis Biotech LLC, priority 2017, dated 2023)
Read-outs that look alike come from different tables or passages of the source.

Key:
Type in all cases: biochemical
[1] = biological target: T1, recombinant mouse FAPα (rmFAPα) (Mus musculus, UniProt P97321); experiment: FAPα enzymatic exopeptidase (dipeptidase) activity assay; conditions: 1 μM test compound; Z-Gly-Pro-AMC substrate; read-out: rmFAPα (% exo inh @ 1 μM)
T1 construct: purchased R&S system (so in the source)
T1 sequence (P97321 1-761): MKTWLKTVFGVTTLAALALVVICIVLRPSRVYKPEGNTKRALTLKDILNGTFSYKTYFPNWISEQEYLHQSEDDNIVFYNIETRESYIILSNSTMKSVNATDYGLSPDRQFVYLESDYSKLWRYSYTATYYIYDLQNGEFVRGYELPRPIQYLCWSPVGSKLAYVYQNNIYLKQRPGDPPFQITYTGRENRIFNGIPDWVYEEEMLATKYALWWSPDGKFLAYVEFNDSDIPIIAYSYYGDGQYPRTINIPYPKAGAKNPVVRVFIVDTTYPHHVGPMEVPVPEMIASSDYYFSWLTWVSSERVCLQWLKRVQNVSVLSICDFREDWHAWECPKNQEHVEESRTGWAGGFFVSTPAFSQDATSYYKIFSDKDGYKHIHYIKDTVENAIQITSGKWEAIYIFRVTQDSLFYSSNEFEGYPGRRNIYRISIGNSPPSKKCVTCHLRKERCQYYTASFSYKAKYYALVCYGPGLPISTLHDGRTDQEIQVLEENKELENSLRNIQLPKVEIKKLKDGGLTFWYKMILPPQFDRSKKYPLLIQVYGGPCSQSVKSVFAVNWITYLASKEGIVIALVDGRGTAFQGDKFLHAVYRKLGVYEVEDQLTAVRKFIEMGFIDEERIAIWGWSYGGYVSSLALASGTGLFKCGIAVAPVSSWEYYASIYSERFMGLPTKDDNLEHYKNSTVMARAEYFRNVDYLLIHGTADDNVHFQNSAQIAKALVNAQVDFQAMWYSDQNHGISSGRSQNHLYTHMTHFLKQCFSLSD
Description: FAPα enzymatic exopeptidase (dipeptidase) activity assay. […] 7-Amino-4-Methylcoumarin (AMC) release was detected by measuring fluorescence at Ex/Em 380/460 nm using a Multifunction Microplate Reader (Synergy 4, Biotek). All measurements were carried out in duplicate. […] For the calculations, the average measurements from reactions containing only vehicle and substrate, without enzyme, were used as a blank and were subtracted from the rest of the measurements. Percent inhibition was calculated using the average measurements from reactions containing vehicle, enzyme, and substrate as the maximum of enzymatic activity. Measurements were performed as a single point.

[2] = biological target: T2, recombinant human DPP9 (rhDPP9) (Homo sapiens, UniProt Q86TI2); experiment: DPP9 enzymatic activity assay; conditions: H-Gly-Pro-AMC substrate
T2 construct: purchased R&S system (so in the source)
T2 sequence (Q86TI2 whole entry): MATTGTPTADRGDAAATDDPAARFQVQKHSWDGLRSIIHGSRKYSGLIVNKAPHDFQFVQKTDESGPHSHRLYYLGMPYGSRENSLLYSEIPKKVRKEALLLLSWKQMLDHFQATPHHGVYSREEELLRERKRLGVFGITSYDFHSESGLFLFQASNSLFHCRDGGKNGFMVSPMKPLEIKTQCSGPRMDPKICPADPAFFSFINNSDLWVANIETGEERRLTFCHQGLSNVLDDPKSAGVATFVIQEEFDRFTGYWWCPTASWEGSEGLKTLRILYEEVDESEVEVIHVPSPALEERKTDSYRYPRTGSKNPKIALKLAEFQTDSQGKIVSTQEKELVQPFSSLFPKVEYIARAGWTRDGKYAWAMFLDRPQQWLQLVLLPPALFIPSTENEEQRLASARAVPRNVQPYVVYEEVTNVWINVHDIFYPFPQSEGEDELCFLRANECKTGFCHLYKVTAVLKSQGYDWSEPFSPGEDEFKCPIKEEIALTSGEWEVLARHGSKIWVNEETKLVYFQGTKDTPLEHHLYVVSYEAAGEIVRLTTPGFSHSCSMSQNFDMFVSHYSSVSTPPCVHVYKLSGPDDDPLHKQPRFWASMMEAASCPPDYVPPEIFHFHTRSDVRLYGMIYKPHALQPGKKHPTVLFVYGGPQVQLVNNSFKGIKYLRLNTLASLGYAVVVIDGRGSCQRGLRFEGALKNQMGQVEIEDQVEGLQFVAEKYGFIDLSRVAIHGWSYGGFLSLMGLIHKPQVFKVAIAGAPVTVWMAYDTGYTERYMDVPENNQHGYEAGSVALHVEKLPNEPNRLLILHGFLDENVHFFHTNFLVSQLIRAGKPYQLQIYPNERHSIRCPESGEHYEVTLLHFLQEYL
Description: (§1) 7-Amino-4-Methylcoumarin (AMC) release was detected by measuring fluorescence at Ex/Em 380/460 nm using a Multifunction Microplate Reader (Synergy 4, Biotek). All measurements were carried out in triplicate.

[3] = biological target: T3, mouse plasma DPPIV (Mus musculus, UniProt P28843); experiment: DPPIV enzymatic activity in mouse plasma; conditions: C57BL/6 mouse plasma; H-Gly-Pro-AMC substrate
T3 construct: from tissue; host or cells: mouse plasma (C57BL/6, EDTA)
T3 sequence (P28843 37-760 limits assumed): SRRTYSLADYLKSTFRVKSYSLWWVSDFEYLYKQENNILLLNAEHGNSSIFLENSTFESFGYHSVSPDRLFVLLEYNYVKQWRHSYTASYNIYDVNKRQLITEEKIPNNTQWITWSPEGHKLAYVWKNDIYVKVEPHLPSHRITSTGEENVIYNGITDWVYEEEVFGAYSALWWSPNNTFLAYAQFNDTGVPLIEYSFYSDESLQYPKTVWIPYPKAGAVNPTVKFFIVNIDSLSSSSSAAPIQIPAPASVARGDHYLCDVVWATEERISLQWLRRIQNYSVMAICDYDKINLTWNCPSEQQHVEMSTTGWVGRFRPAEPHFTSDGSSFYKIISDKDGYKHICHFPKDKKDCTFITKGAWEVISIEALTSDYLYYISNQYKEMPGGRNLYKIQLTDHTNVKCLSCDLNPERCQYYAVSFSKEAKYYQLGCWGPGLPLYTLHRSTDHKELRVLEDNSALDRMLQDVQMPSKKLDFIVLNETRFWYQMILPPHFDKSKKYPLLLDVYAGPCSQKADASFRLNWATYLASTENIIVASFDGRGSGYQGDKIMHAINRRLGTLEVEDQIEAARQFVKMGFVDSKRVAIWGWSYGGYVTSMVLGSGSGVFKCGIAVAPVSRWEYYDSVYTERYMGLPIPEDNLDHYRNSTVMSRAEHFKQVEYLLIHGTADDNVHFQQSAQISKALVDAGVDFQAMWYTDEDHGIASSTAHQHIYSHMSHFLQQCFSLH
Description: Approximately 500 μL of whole blood from one C57BL/6 mouse was harvested into BD Microtainer® tubes (K2) EDTA (#365974, Becton Dickinson and Co.) via terminal cardiac puncture. The blood sample was immediately centrifuged at approximately 9000 g at 4° C. for 5 minutes. Plasma was separated and stored at −80° C. in aliquots of 300 μL. To assay baseline DPPIV enzymatic exopeptidase activity, 5 μL of thawed, mouse plasma was diluted (1:5) in buffer (100 mM Tris-HCl, 400 mM NaCl, 50 mM salicylic acid, 1 mM EDTA, pH 7.5) and mixed with 35 µL of the same buffer before being pre-incubated with different concentrations of 10 μL of test compounds or DMSO vehicle for 15 minutes at 37° C. in 96-well black plates (Nunc, #237108). After pre-incubation, 50 μL of 200 μM dipeptide substrate H-Gly-Pro-AMC (Bachem, #L-1225) was added to the mixture. The assay was performed for 1 hour at 37° C. 7-Amino-4-Methylcoumarin (AMC) release was detected measuring fluorescence at an excitation wavelength of 360 nm and an emission wavelength of 460 nm using a Multifunction Microplate Reader (Synergy 4, Biotek). All measurements were carried out at least in duplicate.

[4] = biological target: T4, recombinant human FAPα (rhFAPα) (Homo sapiens, UniProt Q12884); experiment: FAPα enzymatic exopeptidase (dipeptidase) activity assay; conditions: for inhibition at 1 µM: 1 μM test compound, Z-Gly-Pro-AMC substrate, read-out: rhFAPα (% exo inh @ 1 μM); for IC50: exopeptidase, read-out: rhFAPα (exo IC50)
T4 construct: purchased R&S system (so in the source)
T4 sequence (Q12884 1-760): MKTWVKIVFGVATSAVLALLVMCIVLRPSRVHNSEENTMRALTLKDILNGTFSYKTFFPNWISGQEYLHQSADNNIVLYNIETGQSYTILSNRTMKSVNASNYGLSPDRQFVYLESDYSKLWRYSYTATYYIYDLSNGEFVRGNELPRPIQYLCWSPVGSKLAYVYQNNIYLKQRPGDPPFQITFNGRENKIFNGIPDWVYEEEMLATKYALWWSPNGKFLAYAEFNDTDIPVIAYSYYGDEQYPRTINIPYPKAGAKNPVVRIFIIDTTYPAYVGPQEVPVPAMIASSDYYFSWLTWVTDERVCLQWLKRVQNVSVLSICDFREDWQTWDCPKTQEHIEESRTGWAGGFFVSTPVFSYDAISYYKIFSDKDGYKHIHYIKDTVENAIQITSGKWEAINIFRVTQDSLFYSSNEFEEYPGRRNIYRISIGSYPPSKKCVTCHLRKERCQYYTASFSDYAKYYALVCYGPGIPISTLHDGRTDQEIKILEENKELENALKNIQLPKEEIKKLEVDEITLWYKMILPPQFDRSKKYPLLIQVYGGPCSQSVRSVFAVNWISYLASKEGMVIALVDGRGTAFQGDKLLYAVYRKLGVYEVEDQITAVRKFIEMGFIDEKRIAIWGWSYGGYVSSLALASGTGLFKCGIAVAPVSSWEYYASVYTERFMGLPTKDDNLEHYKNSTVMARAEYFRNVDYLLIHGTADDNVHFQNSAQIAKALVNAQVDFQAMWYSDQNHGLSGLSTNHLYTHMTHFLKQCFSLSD

[5] = biological target: T5, recombinant human DPPIV (rhDPPIV) (Homo sapiens, UniProt P27487); experiment: DPPIV enzymatic activity assay; conditions: H-Gly-Pro-pNA substrate
T5 construct: purchased R&S system (so in the source)
T5 sequence (P27487 whole entry): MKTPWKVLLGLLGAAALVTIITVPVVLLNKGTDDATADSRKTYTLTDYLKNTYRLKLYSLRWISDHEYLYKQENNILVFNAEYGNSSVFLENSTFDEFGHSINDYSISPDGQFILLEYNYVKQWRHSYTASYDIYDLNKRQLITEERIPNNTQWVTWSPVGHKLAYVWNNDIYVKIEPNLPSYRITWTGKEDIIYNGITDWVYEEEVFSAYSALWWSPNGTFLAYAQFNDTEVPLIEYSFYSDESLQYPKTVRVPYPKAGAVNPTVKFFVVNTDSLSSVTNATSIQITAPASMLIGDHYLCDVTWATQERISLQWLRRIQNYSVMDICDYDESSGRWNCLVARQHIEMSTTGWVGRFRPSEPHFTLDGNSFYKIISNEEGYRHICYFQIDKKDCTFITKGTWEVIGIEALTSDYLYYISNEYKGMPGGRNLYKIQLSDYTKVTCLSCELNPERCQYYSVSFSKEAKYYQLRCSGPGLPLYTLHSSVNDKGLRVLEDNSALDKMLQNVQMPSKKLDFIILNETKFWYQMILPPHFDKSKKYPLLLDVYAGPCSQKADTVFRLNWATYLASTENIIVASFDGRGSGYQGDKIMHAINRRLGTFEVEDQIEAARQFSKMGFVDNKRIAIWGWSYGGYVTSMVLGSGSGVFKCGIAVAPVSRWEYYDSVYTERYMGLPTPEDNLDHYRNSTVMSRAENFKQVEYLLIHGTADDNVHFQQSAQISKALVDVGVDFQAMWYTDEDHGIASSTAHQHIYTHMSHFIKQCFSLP

[6] = biological target: T6, recombinant human PREP (rhPREP) (Homo sapiens, UniProt P48147); experiment: PREP enzymatic activity assay; conditions: Z-Gly-Pro-AMC substrate
T6 sequence (P48147 1-710): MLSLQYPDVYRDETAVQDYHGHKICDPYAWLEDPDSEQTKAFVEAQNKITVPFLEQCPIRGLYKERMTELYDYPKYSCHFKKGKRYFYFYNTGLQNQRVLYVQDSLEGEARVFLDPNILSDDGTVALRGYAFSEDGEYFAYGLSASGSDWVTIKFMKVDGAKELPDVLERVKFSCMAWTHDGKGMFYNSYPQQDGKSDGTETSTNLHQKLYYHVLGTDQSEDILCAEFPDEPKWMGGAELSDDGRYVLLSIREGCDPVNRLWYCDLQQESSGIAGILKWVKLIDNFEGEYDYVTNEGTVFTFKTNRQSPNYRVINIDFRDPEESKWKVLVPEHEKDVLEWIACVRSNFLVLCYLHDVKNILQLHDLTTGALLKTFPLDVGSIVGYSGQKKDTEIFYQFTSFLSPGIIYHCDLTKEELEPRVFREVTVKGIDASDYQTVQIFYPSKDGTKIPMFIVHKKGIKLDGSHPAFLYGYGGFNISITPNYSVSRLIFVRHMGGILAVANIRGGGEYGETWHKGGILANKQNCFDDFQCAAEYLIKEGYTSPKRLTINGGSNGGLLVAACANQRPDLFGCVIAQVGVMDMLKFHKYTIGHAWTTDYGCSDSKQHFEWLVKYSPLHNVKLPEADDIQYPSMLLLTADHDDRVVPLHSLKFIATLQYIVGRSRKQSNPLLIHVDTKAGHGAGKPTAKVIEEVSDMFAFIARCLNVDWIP
Description: as §1

[7] = biological target: T7, mouse plasma FAPα (Mus musculus, UniProt P97321); experiment: FAPα enzymatic activity in mouse plasma; conditions: C57BL/6 mouse plasma; PRXS-AMC substrate; read-out: mouse plasma FAPα (PRXS-AMC) (exo IC50)
T7 construct: from tissue; host or cells: mouse plasma (C57BL/6, EDTA)
T7 sequence (P97321 24-761 limits assumed): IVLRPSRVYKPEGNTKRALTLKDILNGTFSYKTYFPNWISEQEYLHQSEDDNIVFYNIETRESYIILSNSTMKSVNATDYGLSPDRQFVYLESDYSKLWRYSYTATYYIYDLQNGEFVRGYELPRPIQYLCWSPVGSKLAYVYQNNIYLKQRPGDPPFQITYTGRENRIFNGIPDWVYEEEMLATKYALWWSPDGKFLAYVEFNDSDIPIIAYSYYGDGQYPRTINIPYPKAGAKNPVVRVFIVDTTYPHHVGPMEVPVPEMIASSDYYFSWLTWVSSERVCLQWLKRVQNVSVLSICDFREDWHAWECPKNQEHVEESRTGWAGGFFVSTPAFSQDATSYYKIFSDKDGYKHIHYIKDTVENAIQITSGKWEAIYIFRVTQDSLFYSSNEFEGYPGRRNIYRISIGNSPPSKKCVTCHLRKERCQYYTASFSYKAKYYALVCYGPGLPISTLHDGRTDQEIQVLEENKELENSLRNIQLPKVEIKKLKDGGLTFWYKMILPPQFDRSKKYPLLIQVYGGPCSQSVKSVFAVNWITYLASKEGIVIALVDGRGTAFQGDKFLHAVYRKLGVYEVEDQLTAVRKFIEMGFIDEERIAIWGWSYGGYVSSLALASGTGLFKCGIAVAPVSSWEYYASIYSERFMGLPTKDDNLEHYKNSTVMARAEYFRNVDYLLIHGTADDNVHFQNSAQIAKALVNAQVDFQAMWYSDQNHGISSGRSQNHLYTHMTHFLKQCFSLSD
Description: The blood sample was immediately centrifuged at approximately 9000 g at 4° C. for 5 minutes. Plasma was separated and stored at −80° C. in aliquots of 300 μL. […] The assay was performed for 1 hour at 37° C. protected from light. 7-Amino-4-Methylcoumarin (AMC) release was detected measuring fluorescence at an excitation wavelength of 380 nm and an emission wavelength of 460 nm using a Multifunction Microplate Reader (Synergy 4, Biotek). All measurements were carried out at least as a single point.

SMILES: N#C[C@@H]1CC(F)(F)CN1C(=O)CNC(=O)N1Cc2ccccc2C1 [Example 8, (S)—N-(2-(2-cyano-4,4-difluoropyrrolidin-1-yl)-2-oxoethyl) isoindoline-2-carboxamide]
- inhibition at 1 µM [1]: < 25%

SMILES: N#C[C@@H]1CC(F)(F)CN1C(=O)CNC(=O)c1ccc2nc(O)ccc2c1 [Compound 10, (S)—N-(2-(2-cyano-4,4-difluoropyrrolidin-1-yl)-2-oxoethyl)-2-hydroxyquinoline-6-carboxamide]
- inhibition at 1 µM [1]: 25 to 50%

SMILES: N#C[C@@H]1CC(F)(F)CN1C(=O)CNC(=O)c1cn(C2CC2)c(=O)c2ccccc12 [Example 3, (S)—N-(2-(2-cyano-4,4-difluoropyrrolidin-1-yl)-2-oxoethyl)-2-cyclopropyl-1-oxo-1,2-dihydroisoquinoline-4-carboxamide]
- inhibition at 1 µM [1]: 25 to 50%

SMILES: N#C[C@@H]1CC(F)(F)CN1C(=O)CNC(=O)c1ncnc2c1CCC2 [Example 5, (S)—N-(2-(2-cyano-4,4-difluoropyrrolidin-1-yl)-2-oxoethyl)-6,7-dihydro-5H-cyclopenta[d]pyrimidine-4-carboxamide]
- inhibition at 1 µM [1]: < 25%

SMILES: N#C[C@@H]1CC(F)(F)CN1C(=O)CNC(=O)c1ccncc1-c1ccc(Cl)c(F)c1 [Compound 111, (S)-3-(4-chloro-3-fluorophenyl)-N-(2-(2-cyano-4,4-difluoropyrrolidin-1-yl)-2-oxoethyl)isonicotinamide]
- IC50 [2]: > 10 µM
- IC50 [3]: 1 to 10 µM
- inhibition at 1 µM [4]: > 50%
- IC50 ([4]; Table 2, Z-Gly-Pro-AMC): < 1000 nM
- IC50 ([4]; Table 3): < 1000 nM
- IC50 [5]: 1 to 10 µM
- IC50 [6]: > 10 µM
- IC50 [7]: < 1000 nM

SMILES: N#Cc1ccc(C(=O)NCC(=O)N2CC(F)(F)C[C@H]2C#N)cc1C(F)(F)F [Compound 12, (S)-4-cyano-N-(2-(2-cyano-4,4-difluoropyrrolidin-1-yl)-2-oxoethyl)-3-(trifluoromethyl)benzamide]
- inhibition at 1 µM [1]: 25 to 50%

SMILES: N#C[C@@H]1CC(F)(F)CN1C(=O)CNC(=O)c1c[nH]c(=O)cc1Cc1ccccc1 [Compound 121, (S)-4-benzyl-N-(2-(2-cyano-4,4-difluoropyrrolidin-1-yl)-2-oxoethyl)-6-oxo-1,6-dihydropyridine-3-carboxamide]
- IC50 [2]: 1 to 10 µM
- IC50 [3]: > 10 µM
- inhibition at 1 µM [4]: > 50%
- IC50 ([4]; Table 2, Z-Gly-Pro-AMC): < 1000 nM
- IC50 ([4]; Table 3): < 1000 nM
- IC50 [5]: > 10 µM
- IC50 [6]: 1 to 10 µM
- IC50 [7]: < 1000 nM

SMILES: CC(c1ccccc1)c1cnccc1C(=O)NCC(=O)N1CC(F)(F)C[C@H]1C#N (stereo partly drawn) [Compound 123, N-(2-((S)-2-cyano-4,4-difluoropyrrolidin-1-yl)-2-oxoethyl)-3-(1-phenylethyl)isonicotinamide]
- IC50 [2]: 1 to 10 µM
- IC50 [3]: > 10 µM
- inhibition at 1 µM [4]: > 50%
- IC50 ([4]; Table 2, Z-Gly-Pro-AMC): < 1000 nM
- IC50 ([4]; Table 3): < 1000 nM
- IC50 [5]: > 10 µM
- IC50 [6]: 1 to 10 µM
